In patent US12582638B2, “Pharmaceutical composition for treating cancer, containing mTOR-signaling inhibitor as active ingredient” (KOREA ADVANCED INSTITUTE OF SCIENCE AND TECHNOLOGY, priority 2020, dated 2026):

Tests used:
p-S6K, p-S6, LC3 [1] = experiment: Cell signaling assay, western blot, MDA-MB-231; format: cell-based, human; settings: 0, 5, and 10 μM, FIG. 7c
Description: (§1) Cells treated with various concentrations (0, 5, and 10 μM) of lomitapide were lysed with RIPA buffer containing a protease-inhibitor cocktail. The whole-cell lysate was incubated on ice for 30 minutes. After centrifugation at 4° C. and 13,300×g for 15 minutes, the supernatant was collected. For use as controls, HCT116, SW480, HT29, MDA-MB-231, and MDA-MB-468 cells were treated with 1 μM of torin, known as an mTOR inhibitor.
For western blot analysis, the supernatant was loaded onto 10% SDS-PAGE gel. The separated proteins were blotted onto a PVDF membrane. Then, the blots were incubated with antibodies at 4° C. for 12 hours as follows (Table 2).
(§2) Then, the blots were washed with TBST (a mixture of tris-buffered saline (TBS) and Tween 20), incubated with horseradish peroxidase-conjugated secondary antibody (Cell signaling) at 37° C. for 1 hour, and washed, followed by detecting enhanced chemiluminescence (ECL; Amersham).

SW480 = experiment: Viability assay for lomitapide-treated colorectal cells (CellTiter-Glo, 24); format: cell-based, human; settings: 0, 1, 2, 5, and 10 μM, dose-dependent
Description: (§3) NCM460, HCT116, HT29, and SW480 cell lines were each seeded at a density of 10^4 cells/well into 96-well plates and incubated 37° C. for 24 hours before treatment with various concentrations (0, 1, 2, 5, and 10 μM) of lomitapide (Sigma Aldrich, Missouri, USA). After treatment of the cells with lomitapide at 37° C. for 24 in a 5% CO2 atmosphere, 100 μL of an assay reagent (CellTiter-Glo® Reagent) was added to each well. Then, luminescence was read using VICTOR X Multilabel Reader (PerkinElmer, Massachusetts, USA) and used to calculate cell viability (%). Results are depicted in FIGS. 2 to 4.

HT29 = experiment: as above; format: cell-based, human; settings: 0, 1, 2, 5, and 10 μM, dose-dependent
Description: as §3

HCT116 = experiment: as above; format: cell-based, human
Description: as §3

[2] = tested on: colorectal cancer patient-derived organoids; experiment: Viability assay for organoids derived from colorectal cancer patients (imaging based); format: cell-based, human; settings: two colorectal cancer patient-derived organoids; 72 hours; FIG. 20
Description: Two-type colorectal cancer patient-derived organoids (organoid from males at 01-46 of age and organoid from females at 02-74 of age) were treated with lomitapide and assayed for viability as follows.
Organoids derived from colorectal cancer patients were cultured for 5-7 days on 48-well plates (SPL, cat 32048).
The organoids were separated from the plates by pipetting with 200 μL of Dulbecco's phosphate-buffered saline (DPBS; Welgene LB001-02) and transferred to new tubes.
For staining, the separated organoids and Hoechst (Thermo, #H-1399) were added at a ratio of 1:2,000 to a culture medium and incubated for 30 minutes at 37° C. in a 5% CO2 incubator. […]
Following the dispense, the number, state, and area of organoids were measured through DAPI signals with the aid of the high-contents imaging-based screening device Cytation 5 (Biotek).
Subsequently, organoid areas were monitored three times every 24 hours for 72 hours without changing the culture medium.
The effectiveness of the drug was calculated by applying the raw data derived from Cytation 5 to the following formulas. […]
Each organoid stained with Hoechst was measured for area (μm^2) by using Cytation 5, and areas of the all organoids in each well were summed.
The difference between the organoid area after 72 hours of drug treatment and the organoid area at the first 0 hour was calculated. […]

B16F10 melanoma = experiment: Mouse homograft tumor model, B16F10 melanoma; format: in vivo; settings: B16F10 in C57B6/N mice
Description: (§4) For mouse homograft tumor model, experiments were conducted using female C57B6/N mice (wild-type, 6 weeks old) with MC38 colorectal cancer and B16F10 melanoma cell lines. MC38 colorectal cancer and B16F10 melanoma cell lines were each subcutaneously injected at a dose of 2×10^5 cells. Lomitapide used in the two models was formulated with 45% saline, 40% PEG300, 5% Tween-80, and 10% DMSO.
For B16F10 skin melanoma, from 10 days after the tumor injection, lomitapide was intraperitoneally injected at a dose of 40 mg/kg three times at days 3, 5, and 7, and anti-PD-1 mAb (clone RMP1-14, BioXCell, West Lebanon, NH, USA) or rat IgG2a iso-type control (clone 2A3, BioXCell, BE0089) was administered at a dose of 20 mg/kg at days 1, 3, 5, and 7. The mice were euthanized immediately when signs of pain were observed, the body weight was reduced by 20% compared to the normal weight, or the tumor volume exceeded 1,000 mm^3 (FIGS. 19a and 19b).

p-S6K, p-S6, LC3 [3] = experiment: Cell signaling assay, western blot, HS746T; format: cell-based, human; settings: 0, 5, and 10 μM, FIG. 7e
Description: as §1, with “concentration” for “concentrations”, “controls,” for “controls, HCT116, SW480, HT29, MDA-MB-231, and MDA-MB-468”
For western blot analysis, the supernatant was loaded onto 10% SDS-PAGE gel. The separated proteins were blotted onto a PVDF membrane. Then, the blots were incubated with antibodies at 4° C. for 12 hours as follows (Table 3).
as §2

MC38 colorectal cancer = experiment: Mouse homograft tumor model, MC38 colorectal cancer; format: in vivo; settings: MC38 in C57B6/N mice
Description: as §4
From 10 days after the DMC38 colorectal cancer cells injection, lomitapide was intraperitoneally injected five times at a dose of 20 mg/kg, and anti-PD-1 mAb (clone RMP1-14, BioXCell, West Lebanon, NH, USA) or rat IgG2a iso-type control (clone 2A3, BioXCell, BE0089) in PBS was administered at a dose of 10 mg/kg at days 1, 4, 7, and 10 (FIGS. 18a and 18b).

With `O=C(NC1CCN(CCCCC2(C(=O)NCC(F)(F)F)c3ccccc3-c3ccccc32)CC1)c1ccccc1-c1ccc(C(F)(F)F)cc1` [lomitapide, N-(2,2,2-trifluoroethyl)-9-[4-[4-[[[4′-(trifluoromethyl)[1,1′-biphenyl]2-yl]carbonyl]amino]-1-piperidinyl]butyl]-9H-fluoren-9-carboxamide] the “conversion from LC3I into LC3II” value (p-S6K, p-S6, LC3 [1]) was “increased induction of conversion from LC3I into LC3II”, the “phosphorylation levels of target proteins (p-S6K and p-S6)” value (p-S6K, p-S6, LC3 [1]) was “remarkably decreased phosphorylation levels” and the cell viability (SW480) was “reduced the viability”. The cell viability (HT29) was “reduced the viability”, the cell viability (HCT116; HCT116, 0, 1, 2, 5, and 10 μM, dose-dependent) was “reduced the viability” and the “cell viability of cancer cells compared to normal cells” value (HCT116; HCT116 vs normal human colonic epithelial cells (NCM460), FIG. 2) was “decreased cell viability”. For the same compound, the organoid viability [2] was “decreased in viability with the increase of the dose”, the “tumor growth compared to the groups treated with the anti-PD-1 mAb” value (B16F10 melanoma; lomitapide 40 mg/kg i.p., anti-PD-1 mAb 20 mg/kg) was “greatly suppressed and reduced” and the “tumor growth compared to the control” value (B16F10 melanoma; lomitapide 40 mg/kg intraperitoneally three times) was “significantly suppressed and reduced tumor growth”. For the same compound, the “conversion from LC3I into LC3II” value (p-S6K, p-S6, LC3 [3]) was “increased induction of conversion from LC3I into LC3II”, the “phosphorylation levels of target proteins (p-S6K, p-S6)” value (p-S6K, p-S6, LC3 [3]; dose-dependent) was “remarkably decreased phosphorylation levels” and the “tumor growth compared to the groups treated with the anti-PD-1 mAb” value (MC38 colorectal cancer; lomitapide 20 mg/kg i.p., anti-PD-1 mAb 10 mg/kg) was “greatly suppressed and reduced”. The “tumor growth compared to the control” value (MC38 colorectal cancer; lomitapide 20 mg/kg intraperitoneally five times) was “significantly suppressed and reduced tumor growth”.
